Columns and labels:
CK1ϵ = CK1ϵ (Homo sapiens (Human), UniProt P49674); assay: LanthaScreen Eu kinase binding assay, CK1ϵ; settings: Table 3; read-out: IC50 Ck1ε
hESC3 Nkx2.5eGFP/w cells = assay: Differentiation in 96-U bottom ultra-low attachment well plates, GFP area imaging; type: cell-based, human; settings: 5 μM; for Average GFP %: after CHIR99021, read on day 14, GFP area over embryoid body size; for Average GFP μm^2 / Average Area μm^2: day 14; for Average Area μm^2: embryoid body size

Sequence of CK1ϵ (P49674 whole entry): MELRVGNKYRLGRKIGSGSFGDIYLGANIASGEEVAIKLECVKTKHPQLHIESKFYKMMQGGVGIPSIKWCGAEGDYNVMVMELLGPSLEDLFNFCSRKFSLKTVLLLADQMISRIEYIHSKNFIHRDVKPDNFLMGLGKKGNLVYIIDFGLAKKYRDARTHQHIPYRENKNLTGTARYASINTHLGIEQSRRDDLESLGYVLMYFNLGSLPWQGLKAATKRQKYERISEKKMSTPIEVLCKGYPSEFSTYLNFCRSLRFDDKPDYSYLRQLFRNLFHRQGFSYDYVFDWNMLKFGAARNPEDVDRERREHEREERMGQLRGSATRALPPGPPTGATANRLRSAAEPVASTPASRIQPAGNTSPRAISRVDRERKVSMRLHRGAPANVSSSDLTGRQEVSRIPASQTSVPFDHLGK

| IC50 (CK1ϵ) | Structure (SMILES) | Average GFP % (hESC3 Nkx2.5eGFP/w cells; Induction Day 2) | Average GFP μm^2 (hESC3 Nkx2.5eGFP/w cells; Induction Day 2) | Average Area μm^2 (hESC3 Nkx2.5eGFP/w cells; Induction Day 2) | Average GFP % (hESC3 Nkx2.5eGFP/w cells; Induction Day 3) | Average GFP μm^2 (hESC3 Nkx2.5eGFP/w cells; Induction Day 3) | Average Area μm^2 (hESC3 Nkx2.5eGFP/w cells; Induction Day 3) | Cardiogenic properties (hESC3 Nkx2.5eGFP/w cells; at specific time course (induction day 2 or 3)) |
| --- | --- | --- | --- | --- | --- | --- | --- | --- |
| 107 nM | CCc1nc(-c2cccc(C)c2)c(-c2ccnc(NC(=O)c3ccccc3)c2)s1 [TAK 715, reference compound] | – | – | – | – | – | – | – |
| – | Fc1ccc(-c2nc(-c3c(Cl)cccc3Cl)[nH]c2-c2ccncc2)cc1 [ZQX-15, 4-[2-(2,6-dichlorophenyl)-4(5)-(4-fluorophenyl)-1H-imidazol-5(4)-yl]pyridine] | 0.0% | 0.0 μm^2 | 129.4 μm^2 | 0.0% | 0.0 μm^2 | 384.0 μm^2 | – |
| – | Cc1cccc(C)c1-c1nc(-c2ccc(F)cc2)c(-c2ccncc2)[nH]1 [ZQX-28, 4-[2-(2,6-dimethylphenyl)-4(5)-(4-fluorophenyl)-1H-imidazol-5(4)-yl]pyridine] | 0.0% | 0.0 μm^2 | 302.4 μm^2 | 2.1% | 6.1 μm^2 | 271.7 μm^2 | – |
| – | COc1cccc(OC)c1-c1nc(-c2ccc(F)cc2)c(-c2ccncc2)[nH]1 [ZQX-18, 4-[2-(2,6-dimethoxyphenyl)-4(5)-(4-fluorophenyl)-1H-imidazol-5(4)-yl]pyridine] | 27.5% | 207.3 μm^2 | 579.4 μm^2 | 15.4% | 143.4 μm^2 | 1065.1 μm^2 | – |
| – | COc1cccc(F)c1-c1nc(-c2ccc(F)cc2)c(-c2ccncc2)[nH]1 [ZQX-20, 4-[2-(2-fluoro-6-methoxyphenyl)-4(5)-(4-fluorophenyl)-1H-imidazol-5(4)-yl]pyridine] | 26.0% | 286.8 μm^2 | 1145.3 μm^2 | 37.3% | 331.1 μm^2 | 996.2 μm^2 | higher cardiogenic properties as SB203580 and IWP-2 |
| – | Fc1ccc(-c2nc(-c3c(F)cccc3I)[nH]c2-c2ccncc2)cc1 [ZQX-30, 4-[2-(2-fluoro-6-iodophenyl)-4(5)-(4-fluorophenyl)-1H-imidazol-5(4)-yl]pyridine] | 4.6% | 60.9 μm^2 | 1361.8 μm^2 | 12.6% | 128.3 μm^2 | 1142.4 μm^2 | – |
| – | Fc1ccc(-c2nc(-c3c(F)cccc3Br)[nH]c2-c2ccncc2)cc1 [ZQX-21, 4-[2-(2-bromo-6-fluorophenyl)-4(5)-(4-fluorophenyl)-1H-imidazol-5(4)-yl]pyridine] | 0.0% | 0.0 μm^2 | 1383.8 μm^2 | 3.4% | 16.9 μm^2 | 974.3 μm^2 | – |
| – | Fc1ccc(-c2nc(-c3ccccc3Br)[nH]c2-c2ccncc2)cc1 [ZQX-22, 4-[2-(2-bromophenyl)-4(5)-(4-fluorophenyl)-1H-imidazol-5(4)-yl]pyridine] | 26.2% | 166.5 μm^2 | 623.0 μm^2 | 24.4% | 284.4 μm^2 | 1165.0 μm^2 | – |
| – | COc1ccccc1-c1nc(-c2ccc(F)cc2)c(-c2ccncc2)[nH]1 [ZQX-16, 4-[2-(2-methoxyphenyl)-4(5)-(4-fluorophenyl)-1H-imidazol-5(4)-yl]pyridine] | 32.8% | 184.7 μm^2 | 576.1 μm^2 | 14.5% | 125.6 μm^2 | 950.3 μm^2 | – |
| – | Nc1ccccc1-c1nc(-c2ccc(F)cc2)c(-c2ccncc2)[nH]1 [ZQX-31, 4-[2-(2-aminophenyl)-4(5)-(4-fluorophenyl)-1H-imidazol-5(4)-yl]pyridine] | 28.9% | 258.3 μm^2 | 891.2 μm^2 | 5.1% | 96.0 μm^2 | 1662.3 μm^2 | – |

Reference: patent publication US10865384B2, “2,4,5-tri-substituted azole-based casein kinase 1 inhibitors as inducers for cardiomyogenesis” (AGENCY FOR SCIENCE, TECHNOLOGY AND RESEARCH, priority 2014, dated 2020)
